Test results as given in EPA's ToxRefDB 2.

Key:
mouse [1] = conditions: Carcinogenicity, other, Oral, Feed, dose end: 98 week, group: systemic
rat [2] = conditions: Prenatal developmental toxicity study, wistar, Oral, Gavage/Intubation, dose end: 16 GD
dog [3] = conditions: Subchronic oral toxicity in nonrodent, beagle, Capsule, dose end: 6 month, group: systemic, systemic / organ weight / liver / relative to body weight
rat [4] = conditions: Combined chronic toxicity/carcinogenicity, wistar, Oral, Feed, dose end: 104 week, group: systemic
mouse [5] = conditions: Carcinogenicity, cd1, Oral, Feed, dose end: 100 week, group: systemic
mouse [6] = conditions: Carcinogenicity; cd1; Oral; Feed; dose end: 24 month; group: systemic; systemic / in life observation / clinical signs / anogenital staining + systemic / in life observation / clinical signs / distended abdomens…
dog [7] = conditions: Chronic toxicity; beagle; Oral; Capsule; dose end: 52 week; group: systemic; systemic / clinical chemistry / alkaline phosphatase (alp/alk) / alkaline phosphatase (alp/alk) + systemic / organ weight / liver / nos + …
rat [8] = conditions: Combined chronic toxicity/carcinogenicity, wistar, Oral, Feed, dose end: 2 year, group: systemic
rat [9] = conditions: Multigenerational reproductive toxicity study, wistar, Oral, Feed, dose end: 3 generation
rabbit = conditions: Prenatal developmental toxicity study, dutch, Oral, Gavage/Intubation, dose end: 18 GD
rat [10] = conditions: Multigenerational reproductive toxicity study, Oral, Feed, dose end: 3 generation, group: offspring
rat [11] = conditions: Subchronic oral toxicity in rodents, sprague dawley, Gavage/Intubation, dose end: 13 week, group: systemic
dog [12] = conditions: Chronic toxicity, beagle, Oral, Feed, dose end: 24 month, group: systemic
rat [13] = conditions: Combined chronic toxicity/carcinogenicity, sprague dawley, Oral, Feed, dose end: 24 month, group: systemic
mouse [14] = conditions: Carcinogenicity, cd1, Oral, Feed, dose end: 104 week, group: systemic
[15] = systemic / hematology / platelet / platelet + systemic / organ weight / liver / relative to body weight + systemic / hematology / leukocyte…
[16] = systemic / organ weight / kidney / absolute + systemic / organ weight / kidney / relative to body weight
[17] = group: developmental, developmental / developmental malformation / bone / short supernumerary + systemic / in life observation / body weight / fetal weight
[18] = group: maternal, systemic / in life observation / body weight / body weight gain + systemic / in life observation / clinical signs / headflicking + systemic…
[19] = systemic / in life observation / clinical signs / tremors + systemic / hematology / platelet / platelet + systemic / organ weight / kidney…
[20] = systemic / organ weight / liver / absolute
[21] = systemic / pathology gross / liver / mass + systemic / pathology gross / lung / mass + systemic / pathology microscopic / liver / …
[22] = systemic / organ weight / kidney / nos + systemic / organ weight / liver / nos + systemic / clinical chemistry / aminopyrine-n-demethylase…
[23] = group: offspring, systemic / pathology microscopic / liver / hypertrophy
[24] = group: parental, systemic / in life observation / clinical signs / tremors
[25] = group: developmental, developmental / developmental malformation / bone / incomplete ossification + systemic / in life observation / body weight / fetal weight
[26] = group: maternal, systemic / in life observation / body weight / body weight gain
[27] = group: maternal, systemic / in life observation / body weight / body weight gain + systemic / in life observation / body weight / body weight
[28] = systemic / in life observation / body weight / offspring (pup) weight + systemic / in life observation / food consumption / food consumption
[29] = systemic / organ weight / heart / nos + systemic / organ weight / heart / relative to body weight
[30] = systemic / organ weight / heart / nos + systemic / organ weight / heart / relative to body weight + systemic / hematology / erythrocyte (rbc…
[31] = systemic / organ weight / thyroid gland / relative to body weight
[32] = systemic / organ weight / thyroid gland / relative to body weight + systemic / organ weight / liver / relative to body weight
[33] = systemic / pathology microscopic / liver / eosinophilic focus
[34] = systemic / pathology microscopic / liver / adenoma + systemic / pathology microscopic / liver / adenoma/carcinoma combined + systemic / …

CC1(C)C(C=C(Cl)Cl)C1C(=O)OCc1cccc(Oc2ccccc2)c1 (configuration not stated) [Permethrin]
LOAEL (mouse [1]; [15]): > 287 mg/kg/day | NOAEL (mouse [1]; [15]): ≥ 287 mg/kg/day | LEL (mouse [1]; [16]): 26.9 mg/kg/day | NEL (mouse [1]; [16]): < 26.9 mg/kg/day | LEL (rat [2]; [17]): 150 mg/kg/day | LOAEL (rat [2]; [17]): 150 mg/kg/day | NEL (rat [2]; [17]): 50 mg/kg/day | NOAEL (rat [2]; [17]): 50 mg/kg/day | LEL (rat [2]; [18]): 150 mg/kg/day | LOAEL (rat [2]; [18]): 150 mg/kg/day | NEL (rat [2]; [18]): 50 mg/kg/day | NOAEL (rat [2]; [18]): 50 mg/kg/day | LEL (dog [3]): 50 mg/kg/day | LOAEL (dog [3]): > 250 mg/kg/day | NEL (dog [3]): 10 mg/kg/day | NOAEL (dog [3]): ≥ 250 mg/kg/day | LEL (rat [4]; systemic / hematology / platelet / platelet + systemic / pathology microscopic / liver / hypertrophy + systemic / pathology microscopic / …): 50 mg/kg/day | LOAEL (rat [4]; systemic / in life observation / clinical signs / tremors): 250 mg/kg/day | NEL (rat [4]; [19]): 10 mg/kg/day | NOAEL (rat [4]; [19]): 50 mg/kg/day | LOAEL (mouse [5]; [20]): 807 mg/kg/day | NOAEL (mouse [5]; [20]): < 807 mg/kg/day | LEL (mouse [5]; [21]): 780 mg/kg/day | NEL (mouse [5]; [21]): < 780 mg/kg/day | LEL (mouse [6]): 3 mg/kg/day | LOAEL (mouse [6]): > 714 mg/kg/day | NEL (mouse [6]): < 3 mg/kg/day | NOAEL (mouse [6]): ≥ 714 mg/kg/day | LEL (dog [7]): 100 mg/kg/day | LOAEL (dog [7]): 100 mg/kg/day | NEL (dog [7]): 5 mg/kg/day | NOAEL (dog [7]): 5 mg/kg/day | LOAEL (rat [8]; systemic / in life observation / clinical signs / hypersensitivity + systemic / in life observation / clinical signs / tremors): 91.5 mg/kg/day | NOAEL (rat [8]; systemic / in life observation / clinical signs / hypersensitivity + systemic / in life observation / clinical signs / tremors + systemic / …): 36.9 mg/kg/day | LEL (rat [8]; [22]): 19.4 mg/kg/day | NEL (rat [8]; [22]): < 19.4 mg/kg/day | LEL (rat [9]; [23]): 25 mg/kg/day | LOAEL (rat [9]; [23]): > 125 mg/kg/day | NEL (rat [9]; [23]): < 25 mg/kg/day | NOAEL (rat [9]; [23]): ≥ 125 mg/kg/day | LEL (rat [9]; [24]): 125 mg/kg/day | LOAEL (rat [9]; [24]): 125 mg/kg/day | NEL (rat [9]; [24]): 50 mg/kg/day | NOAEL (rat [9]; [24]): 50 mg/kg/day | LOAEL (rabbit; group: developmental, developmental / developmental malformation / bone / incomplete ossification): 1200 mg/kg/day | LEL (rabbit; [25]): 1200 mg/kg/day | NEL (rabbit; [25]): 600 mg/kg/day | NOAEL (rabbit; [25]): 600 mg/kg/day | LOAEL (rabbit; [26]): 600 mg/kg/day | NOAEL (rabbit; [26]): < 600 mg/kg/day | LEL (rabbit; [27]): 600 mg/kg/day | NEL (rabbit; [27]): < 600 mg/kg/day

CCCCCCCCCc1ccc(OP(Oc2ccc(CCCCCCCCC)cc2)Oc2ccc(CCCCCCCCC)cc2)cc1 [Phenol, nonyl-, phosphite (3:1)]
LOAEL (rat [10]; [28]): > 500 mg/kg/day | NEL (rat [10]; [28]): 50 mg/kg/day | NOAEL (rat [10]; [28]): ≥ 500 mg/kg/day | LEL (rat [10]; systemic / in life observation / food consumption / food consumption): 167 mg/kg/day

O=C([O-])CF.[Na+] [Sodium fluoroacetate]
NEL (rat [11]; [29]): 0.05 mg/kg/day | NOAEL (rat [11]; [29]): 0.05 mg/kg/day | LEL (rat [11]; [30]): 0.2 mg/kg/day | LOAEL (rat [11]; [30]): 0.2 mg/kg/day

Cc1[nH]c(=O)n(C(C)(C)C)c(=O)c1Cl [Terbacil]
LEL (dog [12]; [31]): 6.25 mg/kg/day | LOAEL (dog [12]; [31]): 6.25 mg/kg/day | NEL (dog [12]; [32]): 1.25 mg/kg/day | NOAEL (dog [12]; [32]): 1.25 mg/kg/day | LOAEL (rat [13]; systemic / organ weight / liver / absolute + systemic / organ weight / liver / relative to body weight + systemic / in life observation / …): 83 mg/kg/day | NOAEL (rat [13]; systemic / organ weight / liver / absolute + systemic / organ weight / liver / relative to body weight + systemic / pathology microscopic / …): 1.4 mg/kg/day | LEL (rat [13]; [33]): 0.9 mg/kg/day | NEL (rat [13]; [33]): < 0.9 mg/kg/day | LEL (mouse [14]; [34]): 7.2 mg/kg/day | NEL (mouse [14]; [34]): < 7.2 mg/kg/day | LOAEL (mouse [14]; systemic / pathology microscopic / liver / hyperplastic nodule (pre-neoplastic)): 1070 mg/kg/day | NOAEL (mouse [14]; systemic / pathology microscopic / liver / hyperplastic nodule (pre-neoplastic) + systemic / pathology microscopic / liver / adenoma + …): 179 mg/kg/day
